We go through two compounds from patent US20260285817A1, “CRYSTALLINE FORMS OF A 1H-1,2,3-TRIAZOLE-4-CARBOXYLIC ACID COMPOUND” (CANTERO THERAPEUTICS, INC., priority 2023, published 2026).

Each structure is given as a SMILES string. Entries after “also recorded” stand apart in the source; their conditions may differ. Read-outs that look alike come from different tables or passages of the source. Where only a bound is given, the exact number is not on record here.

The nature of data set [1]: Dynamic vapor sorption (DVS) hygroscopicity of Form A. In kind it is physicochemical. How it is done: In some embodiments, the crystalline form described herein is further characterized by a dynamic vapor sorption (DVS). In some embodiments, the DVS is recorded using a sample weight of a few milligrams (e.g., about 20 mg) on an ADVENTURE series DVS at 25° C. under nitrogen. In some embodiments, the sample is subjected to the cycle as follows: 1) ambient relative humidity (RH) to 90% RH at a rate of 10% RH and from 90% RH to 95% RH in a rate of 5% RH; 2) 95% RH to 90% RH at a rate of 5% RH and 90% RH to 0% RH at a rate of 10% RH; and 3) 0% RH to 90% RH at a rate of 10% RH and 90% RH to 95% RH in a rate of 5% RH.
Dynamic Vapor Sorption (DVS): Dynamic vapor sorption was performed with an ADVENTURE series DVS at 25° C. under nitrogen blow. Approximately 20 milligrams of material was used. Samples were analyzed using method below: • 1. Ambient relative humidity to 95% RH at 10% RH (5% from 90% RH to 95% RH) • 2. 95% RH to 0% RH at 10% RH (5% RH from 95% RH to 90% RH) • 3. 0% RH to 95% RH at 10% RH (5% RH from 90% RH to 95% RH)
To understand the hygroscopicity of Form A, dynamic vapor sorption (DVS) was employed to measure the mass change as a function of relative humidity at 25° C. Form A was equilibrated at ambient relative humidity before analysis.

Data set [2] in a line: Solubility in water at various temperatures. In kind it is physicochemical. To be noted: for Final Form: XRPD. The protocol:
(§1) High Performance Liquid Chromatography (HPLC): HPLC of Agilent 1260 with DAD detector was employed to detect the purity and solubility, with the methods shown in Table 1.
Solubility in Water at various Temperature: Solubility test was conducted for Form A in water at various temperatures. Specifically, about 3~5 mg Form A sample was added to 1 mL water. After stirring at 750 rpm at desired temperatures (25/35/50/60/70° C.) for 1~2 hrs, solids were isolated for XRPD to check the crystal form and the supernatants were collected for a HPLC analysis to detect the solubility.

A short description of data set [3]: Solubility in 20% EtOH in water and 20% DMAc in water at room temperature. In kind it is physicochemical. The note with it: organic solvent or mixture, 20~60 mins. The protocol: as §1
Solubility in Various Solvents: Solubility of Form A was also measured in 20% EtOH in water and 20% DMAc in water at room temperature (rt). Specifically, about 3 mg Form A sample was added to 0.6 mL solvent.

The nature of data set [4]: Critical water activity study, competitive slurry in THF/H2O at rt, XRPD.
Protocol: Critical water activity (aw) study was performed for mono-sodium salt Form A (monohydrate), Form E (hemihydrate) and Form D (anhydrate) to investigate the form relationship. It was conducted via competitive slurry in THF/H2O with a series of aw (0~1) at rt. Specifically, ~10 mg staring material was suspended in 0.4 mL THF/H2O (aw of 0, 0.2, 0.4, 0.6, 0.8 and 1.0) at rt. After equilibrium for 2 hrs, collect the filtrates to the HPLC vials containing Form A and Form D with equivalent mass ratio. After stirring magnetically at rt for 1~2 days, collect the solids for XRPD analysis.
A short description of data set [5]: 24-hr pH solubility and form stability in six pH buffers at 25° C. The note with it: for solubility at 24 h: aqueous buffer. In kind it is physicochemical. How it is done: as §1
After shaking at 100 rpm at 25° C. for 24 hrs, the suspensions were centrifuged. The solids were analyzed by XRPD for crystal form, and the filtrates of supernatants were analyzed by HPLC for solubility and by pH meter for pH value.

With `O.O=C([O-])c1nn[nH]c1Oc1ccc(-c2ccc(C3CC(F)(F)C3)cc2)cc1.[Na+]` [Form A, sodium 5-((4′-(3,3-difluorocyclobutyl)-[1,1′-biphenyl]-4-yl)oxy)-1H-1,2,3-triazole-4-carboxylate monohydrate], the water uptake entry in data set [1] (25° C./80% RH compared to starting point (60% RH)) is “negligible water uptake”. Moreover, in data set [1] (60% RH to 80% RH, 25° C.), the “weight gain, DVS cycle” value was “less than 0.03%”. Besides, the “weight loss, first dynamic vapor desorption cycle” value in data set [1] (80% RH to 60% RH, 25° C.) is recorded as “less than 0.03%”. Moreover, the hygroscopicity entry in data set [1] (DVS, 25° C., monohydrate) is given as “non-hygroscopic; also recorded: non-hygroscopicity”. Further, the “form stability under humidity” value in data set [1] (broad humidity range, DVS 25° C.) was “good form stability”. The water lost in data set [1] (relative humidity below 10% RH, 25° C.) is ~ 0.6%. Also, the solubility in data set [2] (25~70° C., read-out: solubility as a function of temperature) is 1100 to 2300 µg/mL; in data set [2] (25° C., 1~2 hrs, read-out: Solubility), 1100 µg/mL; in data set [2] (35° C., 1~2 hrs, read-out: Solubility), 1300 µg/mL; in data set [2] (50° C., 1~2 hrs, read-out: Solubility), 1940 µg/mL; in data set [2] (60° C., 1~2 hrs, read-out: Solubility), 1860 µg/mL; in data set [2] (70° C., 1~2 hrs, read-out: Solubility), 2320 µg/mL. Besides, the solubility in data set [3] (20% DMAc in water) was 3300 µg/mL; in data set [3] (20% EtOH in water), 1900 µg/mL; in data set [5] (pH 2.0/4.0/6.0, 25° C.) it was “limited solubility”; in data set [5] (pH 2.0 buffer, 25° C.), “<LOD”; in data set [5] (pH 4.0 buffer, 25° C.) it was “<LOD”; in data set [5] (pH 6.0 buffer, 25° C.) it was “<LOD”. Also, the “Final Form” value in data set [2] (25° C.) and in data set [2] (60° C.) was “Forms A + C” in each case. Besides, the “form transformation in water” value in data set [2] (various temperatures) is reported as “partial conversion to Form C”. Further, the relative form stability result in data set [4] (water, aw of 1.0, rt) is listed as “more stable than Form D”. Moreover, the solubility at 24 h in data set [5] (pH 7.0 buffer, 25° C., read-out: Solubility) is 55 µg/mL; in data set [5] (pH 8.0 buffer, 25° C., read-out: Solubility) it was 404 µg/mL; in data set [5] (pH 10.0 buffer, 25° C., read-out: Solubility), 4830 µg/mL; in data set [5] (ph buffer, pH 2.0~10.0, 25° C., read-out: solubility as a function of pH) it was less than 4800 µg/mL. Further, the “Final pH (measured)” value in data set [5] (pH 2.0 buffer, 25° C.) is “pH 2.5”; in data set [5] (pH 4.0 buffer, 25° C.), “pH 4.4”; in data set [5] (pH 6.0 buffer, 25° C.), “pH 6.2”; in data set [5] (pH 7.0 buffer, 25° C.), “pH 7.1”; in data set [5] (pH 8.0 buffer, 25° C.), “pH 7.4”; in data set [5] (pH 10.0 buffer, 25° C.), “pH 8.4”. Besides, the “Form Change” value in data set [5] (pH 2.0 buffer, 25° C., XRPD of solids) is reported as “Yes”; in data set [5] (pH 2.0~7.0, 25° C.), “new diffractive peaks”; in data set [5] (pH 4.0 buffer, 25° C., XRPD of solids), “Yes”; in data set [5] (pH 6.0 buffer, 25° C., XRPD of solids), “Yes”; in data set [5] (pH 7.0 buffer, 25° C., XRPD of solids), “Yes”; in data set [5] (pH 8.0/10.0, 25° C.), “no form change”. The “Form Change” value is “No” in data set [5] (pH 8.0 buffer, 25° C., XRPD of solids) and “No” in data set [5] (pH 10.0 buffer, 25° C., XRPD of solids).
Regarding `O=C([O-])c1nn[nH]c1Oc1ccc(-c2ccc(C3CC(F)(F)C3)cc2)cc1.[Na+]`, in data set [4] (THF/H2O, aw of 0~0.8, rt), the relative form stability result is “more stable than monohydrate Form A and anhydrate Form D”.
